Data from patent US20080227792A1, “3,4-Dihydro-1H-Isoquinoline-2-Carboxylic Acid 5-Aminopyridin-2-Yl Esters” (Novo Nordisk A/S, priority 2005, published 2008).

Columns and labels:
[1] = target: T1, hormone sensitive lipase (HSL) (Homo sapiens, UniProt Q05469); assay: 3190.2: Assay for determination of IC50 value for the inhibition of hormone sensitive lipase; format: biochemical; settings: fluorochrome-labeled triacylglyceride substrate; 30 min pre-incubation at 25° C., 120 min incubation at 37° C.; 4PL fit
T1 construct: made in house
T1 sequence (Q05469 1-1076): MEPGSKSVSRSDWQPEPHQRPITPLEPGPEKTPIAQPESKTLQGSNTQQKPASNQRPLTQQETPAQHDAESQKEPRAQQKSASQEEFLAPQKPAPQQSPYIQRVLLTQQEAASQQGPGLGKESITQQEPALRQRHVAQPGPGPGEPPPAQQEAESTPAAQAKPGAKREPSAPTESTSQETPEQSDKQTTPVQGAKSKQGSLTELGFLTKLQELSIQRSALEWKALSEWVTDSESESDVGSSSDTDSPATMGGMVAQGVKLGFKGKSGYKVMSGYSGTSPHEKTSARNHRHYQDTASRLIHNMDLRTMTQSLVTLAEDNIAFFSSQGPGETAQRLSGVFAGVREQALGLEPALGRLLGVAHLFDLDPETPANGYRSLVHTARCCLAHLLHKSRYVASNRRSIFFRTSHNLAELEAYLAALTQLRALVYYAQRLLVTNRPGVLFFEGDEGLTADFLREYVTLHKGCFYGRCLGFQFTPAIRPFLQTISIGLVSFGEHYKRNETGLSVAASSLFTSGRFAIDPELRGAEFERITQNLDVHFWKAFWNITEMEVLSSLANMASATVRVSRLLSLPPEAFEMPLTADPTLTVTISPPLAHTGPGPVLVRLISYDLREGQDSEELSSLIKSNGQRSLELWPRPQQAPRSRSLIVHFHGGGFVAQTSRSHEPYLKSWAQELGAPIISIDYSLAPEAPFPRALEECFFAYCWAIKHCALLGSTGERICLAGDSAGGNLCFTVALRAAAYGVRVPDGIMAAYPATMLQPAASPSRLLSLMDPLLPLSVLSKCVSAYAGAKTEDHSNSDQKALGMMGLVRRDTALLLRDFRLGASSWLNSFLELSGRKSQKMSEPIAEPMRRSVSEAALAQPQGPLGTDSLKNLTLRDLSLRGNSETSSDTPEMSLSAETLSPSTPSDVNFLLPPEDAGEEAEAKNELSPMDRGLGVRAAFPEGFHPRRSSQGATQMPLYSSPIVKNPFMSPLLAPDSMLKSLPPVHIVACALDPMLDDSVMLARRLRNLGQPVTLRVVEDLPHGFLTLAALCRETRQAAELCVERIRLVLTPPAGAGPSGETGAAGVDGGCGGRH
Text: Materials. The Hormone-sensitive lipase was provided by Dr. Cecilia Holm, from Lund University Sweden or produced and purified by Novo Nordisk (NN) using the reagents and protocols used by Dr. Holm. The substrates used are: ^3H-labeled triolein (TO) from Amersham, Buckinghamshire, U.K. cat o. TRA191; 5-20 Ci/mmol dissolved in toluene, triolein (Sigma, Cat. No. T-1740), fluorochrome-labeled triacylglyceride (cis-octadec-9-enoic acid 2-[12-(7-nitrobenzo[1,2,5]oxadiazol-4-ylamino)-dodecanoyloxy]-1-cis-octadec-9-enoyloxymethylethyl ester) prepared by Novo Nordisk (NN) by conventional methods, and 1,3-(di[^3H]-stearin), 2-(PEG-Biotin)glycerol prepared in collaboration with Amersham Pharmacia Biotech, UK and described in WO 01/073442. Phosphatidyl choline (PC) and phosphatidyl inositol (PI) are from Sigma (St Luis Mo. cat. Nos. P-3556 and P-5954, respectively). All other reagents are of commercial grade and obtained from various commercial sources.
3190.2: Assay for determination of IC50 value for the inhibition of hormone sensitive lipase by compound. Standard concentrations of compound are 100 μM and 5-fold dilutions (initial concentration corresponding to 10 μM final concentration and 5-fold).
A lipid emulsion with fluorochrome-labeled triacylglyceride and phospholipid is used as substrate with a standard concentration of highly purified HSL (12 μg/mL initial concentration corresponding to 600 ng/mL final concentration). BSA is added as product acceptor. The transfer of the fluorochrome from the lipid phase to the water (BSA) phase changes the fluorescent properties of the fluorochrome. The changes can be monitored on a fluorimeter with an excitation wavelength of 450 nm and an emission wavelength of 545 nm.
Compound and HSL (20 μL compound, 10 μL enzyme and 70 μL PED-BSA buffer) is pre-incubated for 30 min at 25° C. before addition of substrate (100 μL). Amount of formed product is measured after 120 min incubation at 37° C.
Results are given as IC50 values after 4PL fit of obtained activity data.

melting point [°C]	IC50 [1] [nM]	Compound
156 to 158	400	CC1(C)CC(=O)N(c2ccc(OC(=O)N3CCc4ccccc4C3)nc2)C(=O)C1 [Example 1, 3,4-Dihydro-1H-isoquinoline-2-carboxylic acid 4,4-dimethyl-2,6-dioxo-3,4,5,6-tetrahydro-2H-[1,3′]bi-pyridinyl-6′-yl ester]
	40	O=C(Oc1ccc(N2C(=O)CC3(CCCC3)CC2=O)cn1)N1CCc2ccccc2C1 [Example 3, 3,4-Dihydro-1H-isoquinoline-2-carboxylic acid 5-(7,9-dioxo-8-azaspiro[4.5]dec-8-yl)pyridin-2-yl ester]

Compound	melting point [°C]	IC50 [1] [nM]
O=C(Oc1ccc(NC2=NC3(CCCC3)CS2)cn1)N1CCc2ccccc2C1 [Example 4, 3,4-Dihydro-1H-isoquinoline-2-carboxylic acid 5-(3-thia-1-azaspiro[4.4]non-1-en-2-ylamino)-pyridin-2-yl ester]		400
